Values after ≈ are worked out from the molar mass of the structure shown.
Tests used:
S. aureus = experiment: MIC assay, S. aureus; type: cell-based, Staphylococcus aureus
S. pneumo. = experiment: MIC assay, S. pneumo.; type: cell-based, Streptococcus pneumoniae
E. faecalis = experiment: MIC assay, E. faecalis; type: cell-based, Enterococcus faecalis
H. flu = type: cell-based, H. influenza; conditions: H. flu
E coli = experiment: MIC assay, E coli; type: cell-based

| SMILES | MIC (μg/mL) S. aureus (S. aureus) | MIC (μg/mL) S. pneumo. (S. pneumo.) | MIC (μg/mL) E. faecalis (E. faecalis) | MIC (μg/mL) H. flu (H. flu) | MIC (μg/mL) E coli (E coli) |
| --- | --- | --- | --- | --- | --- |
| COC1C=COC2(C)Oc3c(C)c(O)c4c(=O)c(c5oc6cc(N7CCCC7)c(C7CCCCC7)cc6nc-5c4c3C2=O)NC(=O)C(C)=CC=CC(C)C(O)C(C)C(O)C(C)C(O)C1C (centres unmarked) [Compound 115] | 2 µg/mL (≈ 2.24 µM) | 0.25 µg/mL (≈ 0.28 µM) | >8 µg/mL | 8 µg/mL (≈ 8.95 µM) | >8 µg/mL |
| COC1C=COC2(C)Oc3c(C)c(O)c4c(=O)c(c5oc6cc(N7CCCC7)c(C)c(C)c6nc-5c4c3C2=O)NC(=O)C(C)=CC=CC(C)C(O)C(C)C(O)C(C)C(O)C1C (centres unmarked) [Compound 117] | 0.5 µg/mL (≈ 0.595 µM) | 0.06 µg/mL (≈ 0.0714 µM) | 4 µg/mL (≈ 4.76 µM) | 1 µg/mL (≈ 1.19 µM) | >8 µg/mL |
| COc1c(N2CCCC2)cc(C)c2nc3c4c5c6c(C)c(O)c4c(=O)c(c-3oc12)NC(=O)C(C)=CC=CC(C)C(O)C(C)C(O)C(C)C(O)C(C)C(OC)C=COC(C)(O6)C5=O (centres unmarked) [Compound 118] | 0.06 µg/mL (≈ 0.0701 µM) | 0.03 µg/mL (≈ 0.035 µM) | 2 µg/mL (≈ 2.34 µM) | 0.12 µg/mL (≈ 0.14 µM) | 8 µg/mL (≈ 9.35 µM) |
| COC1C=COC2(C)Oc3c(C)c(O)c4c(=O)c(c5oc6cc(N7CCC(F)C7)ccc6nc-5c4c3C2=O)NC(=O)C(C)=CC=CC(C)C(O)C(C)C(O)C(C)C(O)C1C (centres unmarked) [Compound 119] | 0.03 µg/mL (≈ 0.0361 µM) | 0.015 µg/mL (≈ 0.0181 µM) | 0.5 µg/mL (≈ 0.602 µM) | 0.06 µg/mL (≈ 0.0723 µM) | 4 µg/mL (≈ 4.82 µM) |
| COC1C=COC2(C)Oc3c(C)c(O)c4c(=O)c(c5oc6cc(N7CCCC7)c(F)cc6nc-5c4c3C2=O)NC(=O)C(C)=CC=CC(C)C(O)C(C)C(O)C(C)C(O)C1C (centres unmarked) [Compound 120] | 0.03 µg/mL (≈ 0.0361 µM) | 0.06 µg/mL (≈ 0.0723 µM) | 1 µg/mL (≈ 1.2 µM) | 0.12 µg/mL (≈ 0.145 µM) | 8 µg/mL (≈ 9.64 µM) |
| COC1C=COC2(C)Oc3c(C)c(O)c4c(=O)c(c5oc6cc(N7CCCN(C)CC7)cc(O)c6nc-5c4c3C2=O)NC(=O)C(C)=CC=CC(C)C(O)C(C)C(O)C(C)C(O)C1C (centres unmarked) [Compound 121] | 0.004 µg/mL (≈ 0.00459 µM) | 0.00012 µg/mL (≈ 0.000138 µM) | 0.03 µg/mL (≈ 0.0344 µM) | 0.25 µg/mL (≈ 0.287 µM) | 4 µg/mL (≈ 4.59 µM) |
| COC1C=COC2(C)Oc3c(C)c(O)c4c(=O)c(c5sc6cc(N7CCCN(C)CC7)ccc6nc-5c4c3C2=O)NC(=O)C(C)=CC=CC(C)C(O)C(C)C(O)C(C)C(O)C1C (centres unmarked) [Compound 122] | 0.002 µg/mL (≈ 0.0023 µM) | 0.00025 µg/mL (≈ 0.000287 µM) | 0.25 µg/mL (≈ 0.287 µM) | 0.12 µg/mL (≈ 0.138 µM) | 2 µg/mL (≈ 2.3 µM) |
| COC1C=COC2(C)Oc3c(C)c(O)c4c(=O)c(c5oc6cc(N(C)CC(C)C)cc(O)c6nc-5c4c3C2=O)NC(=O)C(C)=CC=CC(C)C(O)C(C)C(O)C(C)C(O)C1C (centres unmarked) [Compound 125] | 0.015 µg/mL (≈ 0.0178 µM) | 0.002 µg/mL (≈ 0.00237 µM) | 0.5 µg/mL (≈ 0.592 µM) | 0.5 µg/mL (≈ 0.592 µM) | >8 µg/mL |
| COC1C=COC2(C)Oc3c(C)c(O)c4c(=O)c(c5oc6cc(N(C)C7CCN(C)CC7)cc(O)c6nc-5c4c3C2=O)NC(=O)C(C)=CC=CC(C)C(O)C(C)C(O)C(C)C(O)C1C (centres unmarked) [Compound 126] | 0.004 µg/mL (≈ 0.00452 µM) | 0.00025 µg/mL (≈ 0.000282 µM) | 0.5 µg/mL (≈ 0.565 µM) | 0.25 µg/mL (≈ 0.282 µM) | 4 µg/mL (≈ 4.52 µM) |
| COC1C=COC2(C)Oc3c(C)c(O)c4c(=O)c(c5oc6cc(N(C)CCC#N)ccc6nc-5c4c3C2=O)NC(=O)C(C)=CC=CC(C)C(O)C(C)C(O)C(C)C(O)C1C (centres unmarked) [Compound 127] | 0.06 µg/mL (≈ 0.0727 µM) | 0.008 µg/mL (≈ 0.0097 µM) | 0.5 µg/mL (≈ 0.606 µM) | 0.12 µg/mL (≈ 0.145 µM) | 8 µg/mL (≈ 9.7 µM) |

Source: patent US7271165B2, “Rifamycin analogs and uses thereof” (priority 2003, dated 2007)
